Common to all, as to type: functional
Assay [1] has as its system Mus musculus. As to the kind of experiment: Incidence of disease (mouse type II collagen) was scored as the percentage of animals within each experimental group that exhibited joint or limb inflammation on day 23 at intraperitoneal dose of 0.024 mg/kg (deaths observed at 1.5 mg/kg).
Assay [2] concerns Mus musculus. Put plainly: Incidence of disease (mouse type II collagen) was scored as the percentage of animals within each experimental group that exhibited joint or limb inflammation on day 37 at intraperitoneal dose of 0.75 mg/kg (deaths observed at 1.5 mg/kg).
For assay [3], the system named is Mus musculus. Put plainly: Incidence of disease (mouse type II collagen) was scored as the percentage of animals within each experimental group that exhibited joint or limb inflammation on day 23 at intraperitoneal dose of 0.094 mg/kg (deaths observed at 1.5 mg/kg).
Assay [4] deals with Mus musculus. As to the kind of experiment: Incidence of disease (mouse type II collagen) was scored as the percentage of animals within each experimental group that exhibited joint or limb inflammation on day 37 at intraperitoneal dose of 0.024 mg/kg (deaths observed at 1.5 mg/kg).
Assay [5] concerns Mus musculus. As to the kind of experiment: Incidence of disease (mouse type II collagen) was scored as the percentage of animals within each experimental group that exhibited joint or limb inflammation on day 37 at intraperitoneal dose of 0.047 mg/kg (deaths observed at 1.5 mg/kg).
For assay [6], the system named is Mus musculus. As to the kind of experiment: Incidence of disease (mouse type II collagen) was scored as the percentage of animals within each experimental group that exhibited joint or limb inflammation on day 37 at intraperitoneal dose of 0.094 mg/kg (deaths observed at 1.5 mg/kg).
Assay [7] has as its system Mus musculus. Put plainly: Incidence of disease (mouse type II collagen) was scored as the percentage of animals within each experimental group that exhibited joint or limb inflammation on day 30 at intraperitoneal dose of 0.094 mg/kg (deaths observed at 1.5 mg/kg).
Assay [8] concerns Mus musculus. As to the kind of experiment: Incidence of disease (mouse type II collagen) was scored as the percentage of animals within each experimental group that exhibited joint or limb inflammation on day 44 at intraperitoneal dose of 0.024 mg/kg (deaths observed at 1.5 mg/kg).
In assay [9] the test system is Mus musculus. Put plainly: Incidence of disease (mouse type II collagen) was scored as the percentage of animals within each experimental group that exhibited joint or limb inflammation on day 37 at intraperitoneal dose of 0.38 mg/kg (deaths observed at 1.5 mg/kg).
Assay [10] concerns Mus musculus. As to the kind of experiment: Tested for antiinflammatory activity on mouse type II collagen arthritis as Paw swelling of all animals in each group on day 23 at intraperitoneal dose of 0.19 mg/kg.
Assay [11] relates to Mus musculus. Put plainly: Tested for antiinflammatory activity on mouse type II collagen arthritis as Paw swelling of all animals in each group on day 30 at intraperitoneal dose of 0.094 mg/kg.
Assay [12] relates to Mus musculus. As to the kind of experiment: Tested for antiinflammatory activity on mouse type II collagen arthritis as Paw swelling of all animals in each group on day 44 at intraperitoneal dose of 0.024 mg/kg.
The test system of assay [13] is Mus musculus. Put plainly: Tested for antiinflammatory activity on mouse type II collagen arthritis as Paw swelling of all animals in each group on day 44 at intraperitoneal dose of 0.094 mg/kg.
Assay [14] has as its system Mus musculus. Put plainly: Tested for antiinflammatory activity on mouse type II collagen arthritis as Paw swelling of all animals in each group on day 37 at intraperitoneal dose of 0.094 mg/kg.
Assay [15] relates to Mus musculus. As to the kind of experiment: Tested for antiinflammatory activity on mouse type II collagen arthritis as Paw swelling of all animals in each group on day 37 at intraperitoneal dose of 0.38 mg/kg.
Assay [16] concerns Mus musculus. Put plainly: Tested for antiinflammatory activity on mouse type II collagen arthritis as Paw swelling of all animals in each group on day 23 at intraperitoneal dose of 0.38 mg/kg.

From ChEMBL document CHEMBL1129930, “Analogues of methotrexate in rheumatoid arthritis. 2. Effects of 5-deazaaminopterin, 5,10-dideazaaminopterin, and analogues on type II collagen-induced arthritis in mice” (J Med Chem, 1997) come the findings set out here.

`CCc1c(CN(C)c2ccc(C(=O)NC(CCC(=O)O)C(=O)O)cc2)cnc2nc(N)nc(N)c12` (stereo unspecified): the Animals was 0% in assay [1]; 14% in assay [2]; 0% in assay [3]; 0% in [4]; 50% in [5]; 25% in [6]. Further, the figures for the Animals in assay [7], in [8] and in assay [9] were 12%, 25% and 0%, respectively. Also, the Paw swelling in assay [10] is 2.11 mm; in assay [11], 2.14 mm; in assay [12], 2.23 mm; in assay [13] it was 2.27 mm; in assay [14] it was 2.2 mm; in assay [15] it was 2.17 mm. This molecule also gave a Paw swelling in [16] of 2.15 mm.
